According to article PMC5145181, “Structural Mapping and Functional Characterization of Zebrafish Class B G-Protein Coupled Receptor (GPCR) with Dual Ligand Selectivity towards GLP-1 and Glucagon” (PLoS ONE, 2016):
pIC50: −log10 of the molar value. Like-named read-outs stand apart in the source and are kept apart here.

Key:
GLP-1R = conditions: cited from earlier work
Description: Receptors for GLP-1 (GLP-1R) and glucagon (GCGR) belong to the class B GPCRs that mediate the physiological effects of the peptides within the glucagon-secretin peptide family. Their structures are characterized by large amino terminal extracellular domains which are about 140 amino acids long and an intracellular core consisting of a cytoplasmic domain and seven transmembrane helices (7TMs) connected through three extracellular and three intracellular loops.

[1] = system: zfGPCR (dual zfGLP-1R/GCGR); conditions: cited from earlier work
Method: Furthermore, exendin-4, an agonist of hGLP-1R, displaced in competitive binding experiments the binding of ^125I-hGLP-1(7–36) amide to the zebrafish receptor with an IC50 of 0.9 nM, which is within a similar concentration range as the one determined in competitive binding experiments with recombinant hGLP-1R [41] and rGLP-1R [23]. However, subsequent phylo ...

[2] = system: hGLP-1R mutant Ser155 to alanine; conditions: Ser152 in hGCGR = Ser155 in hGLP-1R, mutated to alanine; cited from earlier work
Description: Among those are TM1-TM7 interaction between Ser152^1.50 and Ser 390^7.47 in which Ser152^1.50 in TM1 in hGCGR forms a hydrogen bond with the backbone of Ser390^7.47 in TM7.

[3] = system: zfGPCR (dual zfGLP-1R/GCGR); test: Competitive binding, displacement of 125I-exendin(9–39) from recombinant zfGPCR expressed in COS-7 cells; parameters: species or system zebrafish (Danio rerio); conditions: 125I-exendin(9–39) tracer, intact COS-7 cells, 16–18 h at 4°C, triplicate wells, NSB with 1 μM peptide, n = 4 zfGLP-1, n = 3 hGLP-1, zf glucagon, exendin-4, n = 5 exendin(9–39). 95% CI: zfGLP-1 225–371, hGLP-1 121–262, zf glucagon 78.5–144, h glucagon 33.6–134, exendin-4 0.84–1.17, exendin(9–39) 3.42–5.17
Method: (§1) Competitive binding experiments were performed with the recombinant zfGPCR expressed in COS-7 cells, as described previously. Transient transfections of pcDNA3 vector containing recombinant zfGPCR into COS-7 cells were performed as described below for the stimulation of intracellular cAMP. Cells were grown in 100-mm plates to confluence and 24 hr after transfection they were trypsinized and transferred to 24 well plates (Biocore, Becton Dickinson). 24–48 hr later each peptide (pM to μM) was added in triplicate wells followed by the addition of an aliquot (100,000 cpm/well) of either ^125I-hGLP-1(7–36)amide or ^125I-exendin(9–39) (each radioactive peptide tracer at […] receptor grade, NEN Life Science Products, Boston, MA). Peptides, radioiodinated ^125I-tracer and cells were incubated for 16–18 h at 4°C. After incubation cells were washed twice with ice-cold PBS, lysed with 1N NaOH and radioactivity measured in a γ-counter. A single dose-displacement curve for each peptide was obtained in a single 24-well plate.
Non-specific binding was determined in the presence of 1μM of each peptide.
(§2) IC50 values represent an average of n experiments as described above and were calculated by the Prism 4 software. Displacement curves from the competitive binding experiments were plotted by Origin 9 software (OriginLab). Error bars are shown for data points in the displacement curves obtained in two or more rounds of transfections.
(§3) Results from the functional experiments with recombinant zfGPCR transiently expressed in COS-7 cells were analyzed by the Prism 4 software using a four-parameter logistic sigmoidal curve fit model. Data points represent mean +/- SEM.
They are shown together with the 95% confidence intervals (CIs). The F-test was used to compare the IC50 value for zfGLP-1 with the IC50 values for the other tested peptides obtained in the competitive binding experiments shown when ^125I-hGLP-1(7–36)amide or ^125I-exendin (9–39) were used as tracers. Following conditions were used for the curve fitting: (i) in the normalization step y = 0%was set to be 0, y = 100% was set to be 100; (ii) constrained curve-fit parameters were set to be equal to 0.00 on the bottom, 100 on top; (iii) IC50 was not constrained; (iv) the selected option in the non-linear regression curve fit was intended on finding out whether the best-fit of a selected parameter (IC50) differs between two sets.

[4] = system: zfGPCR (dual zfGLP-1R/GCGR); test: Competitive binding, displacement of 125I-hGLP-1(7–36)amide from recombinant zfGPCR expressed in COS-7 cells; parameters: species or system zebrafish (Danio rerio); conditions: 125I-hGLP-1(7–36)amide tracer, intact COS-7 cells, 16–18 h at 4°C, triplicate wells; NSB with 1 μM peptide; n = 3 hGLP-1, n = 2 zf glucagon, exendin-4, exendin(9–39), n = 1 zfGLP-1. 95% CI: zfGLP-1 1.2–3.6; hGLP-1 0.98–13; zf glucagon 1.4–4.0; exendin-4 0.24–0.92; exendin(9–39) 2.4–14
Method: as §1
Dose-response curves for zfGLP-1, zfGLP-2 and zebrafish PACAP-38 were obtained from one transfection. […] Lower rounds of transfections were performed in experiments that replicated our published results from the competitive binding experiments with the displacement of ^125I-hGLP-1(7–36)amide binding to zfGPCR [41] and thus represented positive controls for these studies.
as §2, §3
They are shown together with the 95% confidence intervals (CIs). […]

Substance: exendin-4: peptide exclusively found in the saliva of a lizard; agonist of GLP-1R; purchased from Bachem
- stimulation of intracellular cAMP, GLP-1 vs exendin-4 (GLP-1R): to a similar degree
- IC50 (in words) ([1]; competitive binding, recombinant zfGPCR, similar to rGLP-1R and hGLP-1R): in the low nM range
- pIC50 ([1]; displacement of 125I-hGLP-1(7–36)amide, read-out: IC50 in competitive binding (earlier characterization of the zfGPCR)): 9.05
- receptor affinity [2]: small reduction of receptor affinity
- pIC50 [3]: 9.00
- pIC50 [4]: 9.32
